Measurements as given in patent US20080009802A1, “Method of treating acne with stratum corneum piercing device” (priority 2005, published 2008).
Where two headings read alike, the source gives them in different places.

System: skin site on subject's forearm or face
Conditions: for ENHANCED ACTIVE DELIVERY (HISTAMINE RESPONSE): about 10 microliters 0.10% wt/wt histamine, visual inspection after 10 minutes
Experimental: The microprotrusion disk of Example 1 was affixed on the desired skin site on subject's forearm or face. The implement of Example 3 was used to push the microprotrusion disk through stratum corneum with predetermined impact pressure modified by the choice of spring. The impact pressure was measured using a digital force meter (Model DFM 10, Chatillon, Greensboro, N.C.). The contact area between the implement device and skin was determined to be about 1.2 cm in diameter. The pressure per unit area was calculated from the ratio of pressure/contact area. The disk was removed immediately after the application. Both subject sensation (e.g., pain and sting) and erythema of the testing site were recorded immediately after the application, and is reported in Table 1.
The reaction of the subject's skin to histamine (e.g., erythema) was recorded after 10 minutes following histamine application to the treatment site by visual inspection. Additional inspection followed if a reaction was detected at 10 minutes. Controls were run by applying histamine solution to untreated skin sites (e.g., sites not pierced by the microprotrusion members). All test sites were graded visually for the evidence of post-inflammatory hyperpigmentation (PIH) for up to at least 3 weeks.

skin's reaction to topically applied histamine (control test sites: untreated skin, not pierced by the microprotrusion members): did not result in erythema
skin's reaction to topically applied histamine (following microprotrusion treatment): manifested in erythema
ENHANCED ACTIVE DELIVERY (HISTAMINE RESPONSE) (subject 1/Forearm, microprotrusion length 225 micrometer, 8 lbs/cm^2): Yes,
ENHANCED ACTIVE DELIVERY (HISTAMINE RESPONSE) (subject 2/Forearm, microprotrusion length 225 micrometer, 6 lbs/cm^2): Yes,
ENHANCED ACTIVE DELIVERY (HISTAMINE RESPONSE) (subject 3/Cheek (bone), microprotrusion length 185 micrometer, 3.2 lbs/cm^2): Yes, but not
ENHANCED ACTIVE DELIVERY (HISTAMINE RESPONSE) (subject 4/Forearm, microprotrusion length 185 micrometer, 4.6 lbs/cm^2): Yes,
ENHANCED ACTIVE DELIVERY (HISTAMINE RESPONSE) (subject 5/Forearm, microprotrusion length 185 micrometer, 8 lbs/cm^2): Yes,
ENHANCED ACTIVE DELIVERY (HISTAMINE RESPONSE) (subject 6/Forehead, microprotrusion length 145 micrometer, 5 lbs/cm^2): Yes,
SMILES: NCCc1c[nH]cn1 [histamine]
